# Key:
# Assay type in all cases: in vivo
# [1] = test system: Echinochloa (Ds); assay: Pre-emergence herbicidal action (Example B1); conditions: 1000 g of active ingredient/ha, after 4 weeks, scale of nine ratings
# Method: (§1) Monocotyledonous and dicotyledonous test plants are sown in standard soil in pots. Immediately after sowing, the test compounds, in the form of an aqueous suspension (prepared from a wettable powder (Example F3, b) according to WO 97/34485) or in the form of an emulsion (prepared from an emulsifiable concentrate (Example F1, c) according to WO 97/34485), are applied by spraying in an optimum concentration (500 litres of water/ha). The test plants are then grown in a greenhouse under optimum conditions. After a test duration of 4 weeks, the test is evaluated in accordance with a scale of nine ratings (1=total damage, 9=no action). Ratings of from 1 to 4 (especially from 1 to 3) indicate good to very good herbicidal action. Test plants: Panicum, Echinochloa (Ds), Amaranthus, Chenopodium, Stellaria, Veronica.
# [2] = test system: Panicum; assay: Pre-emergence herbicidal action (Example B1); conditions: 1000 g of active ingredient/ha, after 4 weeks, scale of nine ratings
# Method: as §1
# [3] = test system: Amaranthus; assay: Pre-emergence herbicidal action (Example B1); design: key: 1=total damage; 9=no action; Ratings of from 1 to 4 (especially from 1 to 3) indicate good to very good herbicidal action; conditions: 1000 g of active ingredient/ha, after 4 weeks, scale of nine ratings
# Method: as §1
# [4] = test system: Chenopodium; assay: Pre-emergence herbicidal action (Example B1); design: key: 1=total damage; 9=no action; Ratings of from 1 to 4 (especially from 1 to 3) indicate good to very good herbicidal action; conditions: 1000 g of active ingredient/ha, after 4 weeks, scale of nine ratings
# Method: as §1
# [5] = test system: Stellaria; assay: Pre-emergence herbicidal action (Example B1); design: key: 1=total damage; 9=no action; Ratings of from 1 to 4 (especially from 1 to 3) indicate good to very good herbicidal action; conditions: 1000 g of active ingredient/ha, after 4 weeks, scale of nine ratings
# Method: as §1
# [6] = test system: Veronica; assay: Pre-emergence herbicidal action (Example B1); design: key: 1=total damage; 9=no action; Ratings of from 1 to 4 (especially from 1 to 3) indicate good to very good herbicidal action; conditions: 1000 g of active ingredient/ha, after 4 weeks, scale of nine ratings
# Method: as §1
# [7] = test system: Euphorbia; assay: Post-emergence herbicidal action (Example B2); conditions: post-emergence (2- to 3-leaf stage), 1000 g of active ingredient/ha, after 2 to 3 weeks, scale of nine ratings
# Method: as §1, with “pots. When the test plants are at the 2- to 3-leaf stage,” for “pots. Immediately after sowing,”, “grown on” for “grown”, “of 2 to 3” for “of 4”, “Panicum, Euphorbia,” for “Panicum, Echinochloa (Ds),”
# [8] = test system: Stellaria; assay: Post-emergence herbicidal action (Example B2); conditions: post-emergence (2- to 3-leaf stage), 1000 g of active ingredient/ha, after 2 to 3 weeks, scale of nine ratings
# Method: as §1, with “pots. When the test plants are at the 2- to 3-leaf stage,” for “pots. Immediately after sowing,”, “grown on” for “grown”, “of 2 to 3” for “of 4”, “Panicum, Euphorbia,” for “Panicum, Echinochloa (Ds),”
# [9] = test system: Veronica; assay: Post-emergence herbicidal action (Example B2); conditions: post-emergence (2- to 3-leaf stage), 1000 g of active ingredient/ha, after 2 to 3 weeks, scale of nine ratings
# Method: as §1, with “pots. When the test plants are at the 2- to 3-leaf stage,” for “pots. Immediately after sowing,”, “grown on” for “grown”, “of 2 to 3” for “of 4”, “Panicum, Euphorbia,” for “Panicum, Echinochloa (Ds),”
# [10] = test system: Amaranthus; assay: Post-emergence herbicidal action (Example B2); design: key: 1=total damage; 9=no action; Ratings of from 1 to 4 (especially from 1 to 3) indicate good to very good herbicidal action; conditions: post-emergence (2- to 3-leaf stage), 1000 g of active ingredient/ha, after 2 to 3 weeks, scale of nine ratings
# Method: as §1, with “pots. When the test plants are at the 2- to 3-leaf stage,” for “pots. Immediately after sowing,”, “grown on” for “grown”, “of 2 to 3” for “of 4”, “Panicum, Euphorbia,” for “Panicum, Echinochloa (Ds),”
# [11] = test system: Chenopodium; assay: Post-emergence herbicidal action (Example B2); design: key: 1=total damage; 9=no action; Ratings of from 1 to 4 (especially from 1 to 3) indicate good to very good herbicidal action; conditions: post-emergence (2- to 3-leaf stage), 1000 g of active ingredient/ha, after 2 to 3 weeks, scale of nine ratings
# Method: as §1, with “pots. When the test plants are at the 2- to 3-leaf stage,” for “pots. Immediately after sowing,”, “grown on” for “grown”, “of 2 to 3” for “of 4”, “Panicum, Euphorbia,” for “Panicum, Echinochloa (Ds),”
structure (smiles),measurement,setting,value
"COc1cc(F)ccc1OCC#Cc1ccc(Cl)nc1 [1.004, 2-Chloro-5-[3-(4-fluoro-2-methoxy-phenoxy)-prop-1-ynyl]-pyridine]","Echinochloa (Ds), herbicidal rating",[1],2
same,"Panicum, herbicidal rating",[2],2
same,"Amaranthus, herbicidal rating",[3],1
same,"Chenopodium, herbicidal rating",[4],1
same,"Stellaria, herbicidal rating",[5],1
same,"Veronica, herbicidal rating",[6],1
same,"Euphorbia, herbicidal rating",[7],2
same,"Stellaria, herbicidal rating",[8],2
same,"Veronica, herbicidal rating",[9],2
same,"Amaranthus, herbicidal rating",[10],1
same,"Chenopodium, herbicidal rating",[11],1
